Here are results for two compounds from patent US11896733B2, “Apparatuses, methods, and compositions for the treatment and prophylaxis of chronic wounds” (KCI Licensing, Inc., priority 2010, dated 2024).

Series [1] can be described thus: Release of alpha-lipoic acid from the coating on foam pads. The class given is physicochemical. Particulars: gelatin coating on foam pads (FIG. 9). An excerpt: Polyurethane open-cell reticulated foam pads were selected as the scaffold 140 and were immersed in a solution containing 1.5 wt % of alpha-lipoic acid and 4.5 wt % 225-bloom beef gelatin (and, where applicable, 0.3% EDTA). Gelatin was used as a biocompatible binding agent with good oxygen barrier and sustained release properties for alpha-lipoic acid as well as for its ability to act as a sacrificial substrate for surrounding gelatinases. Alpha-lipoic acid was pre-dissolved in ethanol and then mixed into the final solution. The foam pads were immersed for a sufficient amount of time to coat the pathways formed within the open-cell reticulated foam as described above with respect to the scaffold 140. After immersion, the foam pads were withdrawn, compressed to remove excess solution, and dried to a constant weight. In some cases, sodium benzoate was added to the formulation as a preservative. Dried foams comprised, by weight, 2% alpha-lipoic acid, 6% gelatin and, where applicable, 0.4% EDTA.
A National Diagnostics Hydrogen Peroxide Assay Kit was used to evaluate the antioxidant properties of foam pads and the formulated coated foam pads containing alpha-lipoic acid. Foam pads coated only with gelatin were used as controls. FIG. 7 is a graph showing the percentage of hydrogen peroxide reduction due to reaction with alpha-lipoic acid. […]

Series [2] addresses T1, MMP-9 (Homo sapiens, UniProt P14780).
T1 construct: purchased Biomol
Briefly: MMP-9 Colorimetric Drug Discovery Kit (Biomol): MMP-9 activity reduction by dressings. The series is classed as biochemical. The settings on record: compared to control samples with no MMP-9 inhibitor activity. The text has this:
A National Diagnostics Hydrogen Peroxide Assay Kit was used to evaluate the antioxidant properties of foam pads and the formulated coated foam pads containing alpha-lipoic acid. Foam pads coated only with gelatin were used as controls. FIG. 7 is a graph showing the percentage of hydrogen peroxide reduction due to reaction with alpha-lipoic acid. An MMP-9 Colorimetric Drug Discovery Kit (Biomol) was used to evaluate the MMP inhibiting/inactivating ability of the formulated foam pads containing alpha-lipoic acid/gelatin (ALA) and gelatin alone (GF GEL). The controls were uncoated foam pads and known potent MMP inactivating drug, NNGH (C13H20N2O5S, available from Enzo® Life Sciences). […] FIG. 9 is a graph showing the release of alpha-lipoic acid from the coating on the foam pads. The coating delivers approximately 70% of the total alpha-lipoic acid within the first day, while the remaining alpha-lipoic acid is released during the next 2-3 days.
Coated polyurethane foam (GranuFoam®) scaffolds described above in Examples 1-2 were further assayed for their ability to reduce MMP activity as compared to non-coated collagen based scaffold such as the Biostep™ and Promogran™ products.

Each structure is given as a SMILES string.

T1 sequence (P14780 107-444 limits assumed): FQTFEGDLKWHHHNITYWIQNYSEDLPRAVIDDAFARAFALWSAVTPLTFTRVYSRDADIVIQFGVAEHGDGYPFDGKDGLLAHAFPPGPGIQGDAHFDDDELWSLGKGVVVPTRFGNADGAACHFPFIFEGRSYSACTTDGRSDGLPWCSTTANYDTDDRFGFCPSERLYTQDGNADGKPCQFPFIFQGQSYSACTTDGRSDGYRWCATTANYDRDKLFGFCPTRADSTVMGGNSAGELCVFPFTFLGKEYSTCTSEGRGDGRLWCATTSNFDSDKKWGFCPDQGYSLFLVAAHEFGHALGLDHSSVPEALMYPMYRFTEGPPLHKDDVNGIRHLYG

As for `O=C(O)CCCCC1CCSS1` (stereo not drawn) [alpha-lipoic acid], the “time over which the remaining alpha-lipoic acid is released” value in series [1] (after the first day) lay within 2 to 3 days. In series [1] (within the first day), the “fraction of the total alpha-lipoic acid delivered by the coating” value is reported as “approximately 70%”.
With `COc1ccc(S(=O)(=O)N(CC(=O)NO)CC(C)C)cc1` [NNGH], the “% MMP-9 activity reduction” value in series [2] (Table 1 (first of two separate experiments)) was determined as 90.2%; in series [2] (Table 2 (second of two separate experiments)) it was 103.8%.
